Calls of active or inactive are those of the source. No cut-off for these calls is given here.
How the values were obtained:
[1] = Stability of compound in H2O by HPLC analysis; type: physicochemical
[2] = Stability of compound in PBS by HPLC analysis; type: physicochemical; conditions: buffer
[3] = Stability of compound in DMEM medium by HPLC analysis; type: physicochemical
U-87 MG [4] = test: Antiproliferative activity against human U87 cells incubated for 48 hrs by MTT assay; type: functional, cell-based, U-87MG ATCC
A549 [5] = test: Antiproliferative activity against human A549 cells incubated for 48 hrs by MTT assay; type: functional, cell-based; conditions: A549, 48 h
U-87 MG [6] = test: Antiproliferative activity against human U87 cells incubated for 48 hrs in presence of 4-(4-(3-(4-chloro-3-(trifluoromethyl)phenyl)ureido)phenoxy)-N-(prop-2-yn-1-yl)picolinamide by MTT assay; type: functional, cell-based, U-87MG ATCC
A549 [7] = test: Antiproliferative activity against human A549 cells incubated for 48 hrs in presence of 4-(4-(3-(4-chloro-3-(trifluoromethyl)phenyl)ureido)phenoxy)-N-(prop-2-yn-1-yl)picolinamide by MTT assay; type: functional, cell-based; conditions: A549, 48 h
HEK293 [8] = test: Cytotoxicity against HEK293 cells incubated for 48 hrs by MTT assay; type: toxicity, cell-based; conditions: human, hek293, 48 h
[9] = biological target: Platelet-derived growth factor receptor beta (Homo sapiens) (UniProt P09619); test: Induction of PDGFR-beta degradation in human U87 cells at 10 uM incubated for 48 hrs by Western blot analysis; type: cell-based
Chain of Platelet-derived growth factor receptor beta (Homo sapiens) (P09619 whole entry): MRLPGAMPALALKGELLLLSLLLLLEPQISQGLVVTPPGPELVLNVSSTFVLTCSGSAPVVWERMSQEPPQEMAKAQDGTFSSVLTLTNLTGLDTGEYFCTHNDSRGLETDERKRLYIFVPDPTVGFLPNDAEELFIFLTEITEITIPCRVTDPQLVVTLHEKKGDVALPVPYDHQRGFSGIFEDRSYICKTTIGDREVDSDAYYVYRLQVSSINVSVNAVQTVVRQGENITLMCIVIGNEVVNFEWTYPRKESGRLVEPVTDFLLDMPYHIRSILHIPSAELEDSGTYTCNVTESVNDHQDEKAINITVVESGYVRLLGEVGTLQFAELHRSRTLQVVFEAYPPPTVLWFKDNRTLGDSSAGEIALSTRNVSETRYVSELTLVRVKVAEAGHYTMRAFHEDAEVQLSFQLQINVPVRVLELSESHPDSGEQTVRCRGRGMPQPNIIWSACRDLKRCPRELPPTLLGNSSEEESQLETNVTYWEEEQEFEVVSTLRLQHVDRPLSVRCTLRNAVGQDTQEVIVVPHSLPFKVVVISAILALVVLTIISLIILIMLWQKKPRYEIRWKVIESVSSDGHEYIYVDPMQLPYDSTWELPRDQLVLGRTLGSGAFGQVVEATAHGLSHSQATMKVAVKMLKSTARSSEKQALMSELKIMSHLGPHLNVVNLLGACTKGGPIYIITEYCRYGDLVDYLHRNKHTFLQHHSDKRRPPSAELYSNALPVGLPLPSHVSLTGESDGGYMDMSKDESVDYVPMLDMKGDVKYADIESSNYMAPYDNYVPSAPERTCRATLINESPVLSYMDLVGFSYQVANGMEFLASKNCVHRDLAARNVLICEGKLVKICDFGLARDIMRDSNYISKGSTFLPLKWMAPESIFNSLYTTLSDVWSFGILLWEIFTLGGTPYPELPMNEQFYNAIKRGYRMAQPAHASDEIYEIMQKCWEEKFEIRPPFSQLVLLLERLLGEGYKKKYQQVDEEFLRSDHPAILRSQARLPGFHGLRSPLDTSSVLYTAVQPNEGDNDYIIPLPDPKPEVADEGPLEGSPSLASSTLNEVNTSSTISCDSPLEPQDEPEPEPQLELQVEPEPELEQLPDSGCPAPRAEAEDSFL

U-87 MG [10] = test: Induction of apoptosis in human U87 cells assessed as early apoptotic cells at 0.1 uM incubated for 48 hrs in presence of 4-(4-(3-(4-chloro-3-(trifluoromethyl)phenyl)ureido)phenoxy)-N-(prop-2-yn-1-yl)picolinamide by Annexin V-FLTC/PI staining based flow cytometry (reference value: 8.95 %); type: functional, U-87MG ATCC
U-87 MG [11] = test: Induction of apoptosis in human U87 cells assessed as late apoptotic cells at 0.1 uM incubated for 48 hrs in presence of 4-(4-(3-(4-chloro-3-(trifluoromethyl)phenyl)ureido)phenoxy)-N-(prop-2-yn-1-yl)picolinamide by Annexin V-FLTC/PI staining based flow cytometry (reference value: 3.71 %); type: functional, U-87MG ATCC
U-87 MG [12] = test: Induction of apoptosis in human U87 cells assessed as viable cells at 1 uM incubated for 48 hrs in presence of 4-(4-(3-(4-chloro-3-(trifluoromethyl)phenyl)ureido)phenoxy)-N-(prop-2-yn-1-yl)picolinamide by Annexin V-FLTC/PI staining based flow cytometry (reference value: 86.74 %); type: functional, U-87MG ATCC; conditions: read-out: Activity
U-87 MG [13] = test: Induction of apoptosis in human U87 cells assessed as necrotic cells at 1 uM incubated for 48 hrs in presence of 4-(4-(3-(4-chloro-3-(trifluoromethyl)phenyl)ureido)phenoxy)-N-(prop-2-yn-1-yl)picolinamide by Annexin V-FLTC/PI staining based flow cytometry (reference value: 0.60 %); type: functional, U-87MG ATCC
U-87 MG [14] = test: Induction of apoptosis in human U87 cells assessed as viable cells at 5 uM incubated for 48 hrs in presence of 4-(4-(3-(4-chloro-3-(trifluoromethyl)phenyl)ureido)phenoxy)-N-(prop-2-yn-1-yl)picolinamide by Annexin V-FLTC/PI staining based flow cytometry (reference value: 86.74 %); type: functional, U-87MG ATCC; conditions: read-out: Activity
U-87 MG [15] = test: Induction of apoptosis in human U87 cells assessed as late apoptotic cells at 5 uM incubated for 48 hrs in presence of 4-(4-(3-(4-chloro-3-(trifluoromethyl)phenyl)ureido)phenoxy)-N-(prop-2-yn-1-yl)picolinamide by Annexin V-FLTC/PI staining based flow cytometry (reference value: 3.71 %); type: functional, U-87MG ATCC
U-87 MG [16] = test: Induction of apoptosis in human U87 cells assessed as necrotic cells at 5 uM incubated for 48 hrs in presence of 4-(4-(3-(4-chloro-3-(trifluoromethyl)phenyl)ureido)phenoxy)-N-(prop-2-yn-1-yl)picolinamide by Annexin V-FLTC/PI staining based flow cytometry (reference value: 0.60 %); type: functional, U-87MG ATCC
U-87 MG [17] = test: Induction of apoptosis in human U87 cells assessed as viable cells at 10 uM incubated for 48 hrs in presence of 4-(4-(3-(4-chloro-3-(trifluoromethyl)phenyl)ureido)phenoxy)-N-(prop-2-yn-1-yl)picolinamide by Annexin V-FLTC/PI staining based flow cytometry (reference value: 86.74 %); type: functional, U-87MG ATCC; conditions: read-out: Activity
A549 [18] = test: Antiproliferative activity against human A549 cells incubated for 48 hrs in presence of 4-azido-N-(2-(2,6-dioxopiperidin-3-yl)-1,3-dioxoisoindolin-4-yl)butanamide by MTT assay; type: functional, cell-based; conditions: A549, 48 h
A549 [19] = test: Antiproliferative activity against human A549 cells incubated for 48 hrs in presence of (2S,4R)-1-((S)-2-(5-azidopentanamido)-3,3-dimethylbutanoyl)-4-hydroxy-N-(4-(4-methylthiazol-5-yl)benzyl)pyrrolidine-2-carboxamide by MTT assay; type: functional, cell-based; conditions: A549, 48 h
HEK293 [20] = test: Cytotoxicity against HEK293 cells at low concentration incubated for 48 hrs in presence of (2S,4R)-1-((S)-2-(5-azidopentanamido)-3,3-dimethylbutanoyl)-4-hydroxy-N-(4-(4-methylthiazol-5-yl)benzyl)pyrrolidine-2-carboxamide by MTT assay; type: toxicity, cell-based; conditions: human, hek293, 48 h
HEK293 [21] = test: Cytotoxicity against HEK293 cells at high concentration incubated for 48 hrs in presence of 4-azido-N-(2-(2,6-dioxopiperidin-3-yl)-1,3-dioxoisoindolin-4-yl)butanamide by MTT assay; type: toxicity, cell-based; conditions: human, hek293, 48 h
HEK293 [22] = test: Cytotoxicity against HEK293 cells at high concentration incubated for 48 hrs in presence of (2S,4R)-1-((S)-2-(5-azidopentanamido)-3,3-dimethylbutanoyl)-4-hydroxy-N-(4-(4-methylthiazol-5-yl)benzyl)pyrrolidine-2-carboxamide by MTT assay; type: toxicity, cell-based; conditions: human, hek293, 48 h
[23] = biological target: Platelet-derived growth factor receptor beta (Homo sapiens) (UniProt P09619); test: Induction of PDGFR-beta degradation in human U87 cells upto 10 uM incubated for 48 hrs by Western blot analysis; type: cell-based
[24] = biological target: Platelet-derived growth factor receptor beta (Homo sapiens) (UniProt P09619); test: Induction of PDGFR-beta degradation in human U87 cells at 10 uM incubated for 48 hrs in presence of 4-azido-N-(2-(2,6-dioxopiperidin-3-yl)-1,3-dioxoisoindolin-4-yl)butanamide by Western blot analysis; type: cell-based
[25] = biological target: Serine/threonine-protein kinase B-raf (Homo sapiens) (UniProt P15056); test: Induction of BRAF degradation in human U87 cells at 10 uM incubated for 48 hrs in presence of 4-azido-N-(2-(2,6-dioxopiperidin-3-yl)-1,3-dioxoisoindolin-4-yl)butanamide by Western blot analysis; type: cell-based
Chain of Serine/threonine-protein kinase B-raf (Homo sapiens) (P15056 whole entry): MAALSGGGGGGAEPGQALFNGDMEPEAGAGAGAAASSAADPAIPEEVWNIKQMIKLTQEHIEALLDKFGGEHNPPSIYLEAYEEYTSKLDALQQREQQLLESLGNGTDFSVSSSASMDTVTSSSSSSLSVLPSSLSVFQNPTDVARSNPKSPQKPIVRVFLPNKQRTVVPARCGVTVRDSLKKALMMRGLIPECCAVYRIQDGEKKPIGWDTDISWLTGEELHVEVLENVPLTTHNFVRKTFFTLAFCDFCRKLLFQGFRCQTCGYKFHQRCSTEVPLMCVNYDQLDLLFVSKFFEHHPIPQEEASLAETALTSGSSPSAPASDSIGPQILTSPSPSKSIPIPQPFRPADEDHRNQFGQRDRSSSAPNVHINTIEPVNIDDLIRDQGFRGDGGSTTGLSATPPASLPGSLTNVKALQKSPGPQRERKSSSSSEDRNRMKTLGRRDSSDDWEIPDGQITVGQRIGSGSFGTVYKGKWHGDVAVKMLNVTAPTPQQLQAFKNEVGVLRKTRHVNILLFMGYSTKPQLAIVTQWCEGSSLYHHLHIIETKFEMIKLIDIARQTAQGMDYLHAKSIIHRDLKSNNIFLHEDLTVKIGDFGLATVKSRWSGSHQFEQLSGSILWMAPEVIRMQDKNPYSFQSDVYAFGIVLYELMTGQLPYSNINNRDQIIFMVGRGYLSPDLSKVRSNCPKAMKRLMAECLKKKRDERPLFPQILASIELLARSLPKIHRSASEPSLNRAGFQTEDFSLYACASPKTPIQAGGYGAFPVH

U-87 MG [26] = test: (§1) Induction of apoptosis in human U87 cells assessed as early apoptotic cells at 0.1 uM incubated for 48 hrs in presence of (2S,4R)-1-((S)-2-(5-azidopentanamido)-3,3-dimethylbutanoyl)-4-hydroxy-N-(4-(4-methylthiazol-5-yl)benzyl)pyrrolidine-2-carboxamide by Annexin V-FLTC/PI staining based flow cytometry (reference value: 8.95 %); type: functional, U-87MG ATCC
U-87 MG [27] = test: Induction of apoptosis in human U87 cells assessed as viable cells at 5 uM incubated for 48 hrs in presence of (2S,4R)-1-((S)-2-(5-azidopentanamido)-3,3-dimethylbutanoyl)-4-hydroxy-N-(4-(4-methylthiazol-5-yl)benzyl)pyrrolidine-2-carboxamide by Annexin V-FLTC/PI staining based flow cytometry (reference value: 86.74 %); type: functional, U-87MG ATCC; conditions: read-out: Activity
U-87 MG [28] = test: (§2) Induction of apoptosis in human U87 cells assessed as necrotic cells at 5 uM incubated for 48 hrs in presence of (2S,4R)-1-((S)-2-(5-azidopentanamido)-3,3-dimethylbutanoyl)-4-hydroxy-N-(4-(4-methylthiazol-5-yl)benzyl)pyrrolidine-2-carboxamide by Annexin V-FLTC/PI staining based flow cytometry (reference value: 0.60 %); type: functional, U-87MG ATCC
U-87 MG [29] = test: as §2, with “at 10” for “at 5”; type: functional, U-87MG ATCC
U-87 MG [30] = test: as §1, with “20” for “0.1”; type: functional, U-87MG ATCC

Structure (SMILES): [N-]=[N+]=NCCCC(=O)Nc1cccc2c1C(=O)N(C1CCC(=O)NC1=O)C2=O (stereo not drawn)
- Stability [1]: Stable
- Stability [2]: Unstable
- Stability [3]: Unstable
- IC50 (U-87 MG [4]): > 50000 nM
- IC50 (A549 [5]): > 50000 nM
- IC50 (U-87 MG [6]): 5680 nM
- IC50 (A549 [7]): 1160 nM
- Activity (HEK293 [8]): Non-Toxic
- Activity [9]: Active
- Activity (U-87 MG [10]): 10.27%
- Activity (U-87 MG [11]): 3.35%
- viability at 1 µM (U-87 MG [12]): 81.6%
- Activity (U-87 MG [13]): 1.26%
- viability at 5 µM (U-87 MG [14]): 1.48%
- Activity (U-87 MG [15]): 73.25%
- Activity (U-87 MG [16]): 25.22%
- viability at 10 µM (U-87 MG [17]): 1.74%

Structure (SMILES): C#CCNC(=O)c1cc(Oc2ccc(NC(=O)Nc3ccc(Cl)c(C(F)(F)F)c3)cc2)ccn1
- IC50 (U-87 MG [4]): 6670 nM
- IC50 (A549 [5]): 2810 nM
- IC50 (A549 [18]): 1160 nM
- IC50 (A549 [19]): 1060 nM
- Activity (HEK293 [8]): Non-Toxic
- Activity (HEK293 [20]): Non-Toxic
- Activity (HEK293 [21]): Toxic
- Activity (HEK293 [22]): Toxic
- Activity [23]: inactive
- Activity [24]: Active
- Activity [25]: Active
- Activity (U-87 MG [26]): 10.27%
- viability at 5 µM (U-87 MG [27]): 1.48%
- Activity (U-87 MG [28]): 25.22%
- Activity (U-87 MG [29]): 25.6%
- Activity (U-87 MG [30]): 4.73%

Source: ChEMBL document CHEMBL5620355, “Discovery of intracellular self-assembly protein degraders driven by tumor-specific activatable bioorthogonal reaction” (Eur J Med Chem, 2023)
